Assay results: the NIST ThermoML archive (doi:10.1021/je300557g)

Assay: xn = mol fraction of the nth substance listed
Conditions: 101 kPa, Liquid; for mass density: Vibrating tube method

CCCC[n+]1cccc(C)c1.F[B-](F)(F)F [1-butyl-3-methylpyridinium tetrafluoroborate] + CCO
Conditions	kinematic viscosity, 293.15 K [m2/s]	kinematic viscosity, 303.15 K [m2/s]	kinematic viscosity, 313.15 K [m2/s]	kinematic viscosity, 323.15 K [m2/s]	mass density, 293.15 K [kg/m3]	mass density, 303.15 K [kg/m3]	mass density, 313.15 K [kg/m3]	mass density, 323.15 K [kg/m3]
x1 = 0.0521	2.07e-06	1.68e-06	1.4e-06	1.18e-06	855.55	847.17	838.85	830.02
x1 = 0.0964	2.67e-06	2.12e-06	1.75e-06	1.47e-06	900.79	892.48	884.31	875.68
x1 = 0.1964	4.31e-06	3.36e-06	2.71e-06	2.24e-06	977.43	969.49	961.48	953.37
x1 = 0.321	6.84e-06	5.15e-06	4.19e-06	3.39e-06	1041.5	1033.92	1026.2	1018.52
x1 = 0.3936	9.28e-06	6.82e-06	5.54e-06	4.49e-06	1068.86	1061.42	1053.9	1046.35
x1 = 0.4941	1.44e-05	1.03e-05	8.05e-06	6.24e-06	1098.93	1091.66	1084.35	1076.96
x1 = 0.59	2.21e-05	1.5e-05	1.15e-05	8.86e-06	1121.77	1114.64	1107.46	1100.21
x1 = 0.691	3.66e-05	2.32e-05	1.76e-05	1.28e-05	1141.6	1134.58	1127.48	1120.38
x1 = 0.7952	6.13e-05	3.68e-05	2.61e-05	1.81e-05	1158.8	1151.88	1144.87	1137.9
x1 = 0.85	8.37e-05	4.86e-05	3.28e-05	2.23e-05	1166.81	1159.93	1152.99	1146.06
x1 = 0.8992	0.000111	6.25e-05	4.03e-05	2.67e-05	1173.47	1166.61	1159.75	1152.86
x1 = 0.9477	0.00015	8.29e-05	5.08e-05	3.29e-05	1179.57	1172.74	1165.95	1159.11
